{"source": "paper PMC11225352", "about": "“A multicenter, randomized, double-blind, placebo-controlled ascending dose study to evaluate the safety, tolerability, pharmacokinetics (PK) and pharmacodynamic (PD) effects of Posiphen in subjects with early Alzheimer’s Disease” (Alzheimer's Research & Therapy, 2024)", "key": {"Aβ40": {"test_system": "Aβ40", "test": "SILK analysis of CSF Aβ40 (fractional synthesis rate, IP-MS)", "assay_type": "in vivo, human", "experimental": "From June 5, 2017 to December 31, 2021, we conducted the DISCOVER randomized clinical trial at five participating sites, coordinated by the Alzheimer’s Disease Cooperative Study (ADCS) at UCSD, with funding from the National Institute on Aging and investigational product provided by Annovis, Inc. This study was approved by each participating site’s IRB and was registered on https://www.clinicaltrials.gov/ as NCT02925650. The trial was conducted according to the guidelines of good clinical practice (GCP) and was monitored by the ADCS. A Data Safety Monitoring Board (DSMB) reviewed data for each cohort and for the study overall. […]\nFor the confinement visit, subjects arrived in the early morning after an overnight fast. […] After 36 h, intravenous lines and the CSF catheter were removed, vital signs were measured, physical exam performed, and blood and CSF were sent for routine laboratory studies. […]\nFor biochemical analysis to derive data for SILK, ^13C6-leucine was analyzed in plasma and CSF by mass spectrometry, and Aβ peptides in CSF were analyzed by immunoprecipitation-mass spectrometry (IP-MS) as previously described, by C2N Diagnostics (St Louis, MO). CSF levels of sAPPα, sAPPβ, Aβ38, 40 and 42 were analyzed by the ADCS Biomarker Core using Mesoscale Discovery (MSD) electrochemiluminescent assays (Mesoscale Discovery, Rockville, MD). […]"}, "Aβ42 [1]": {"test_system": "Aβ42", "test": "SILK analysis of CSF Aβ42 (fractional synthesis rate)", "assay_type": "in vivo, human", "settings": "after 21 days", "experimental": "(§1) For biochemical analysis to derive data for SILK, ^13C6-leucine was analyzed in plasma and CSF by mass spectrometry, and Aβ peptides in CSF were analyzed by immunoprecipitation-mass spectrometry (IP-MS) as previously described, by C2N Diagnostics (St Louis, MO). CSF levels of sAPPα, sAPPβ, Aβ38, 40 and 42 were analyzed by the ADCS Biomarker Core using Mesoscale Discovery (MSD) electrochemiluminescent assays (Mesoscale Discovery, Rockville, MD). Levels of Posiphen and its N1 and N8 metabolites in plasma and CSF were measured by Charles River Laboratories (Montreal, CA) by high-performance liquid chromatographic mass spectrometry, with use of deuterated Posiphen (procured by Charles River Laboratories) as an internal standard.\nFor SILK, the fraction of labeled Aβ for Aβ38, 40, and 42 during 36 h after administration of study drug for each subject was calculated, as described. The FSR measures were calculated by fitting a line to the upslope of the CSF Aβ labeling data. It was assumed that the upslope occurred between hours 6–16 h after the start of confinement. […] The percentage of newly synthesized and degraded Aβ was estimated over 36 h by multiplying the […] concentration of Aβ measured at the start of confinement (i.e. at catheter placement; time = 0) by the percentage of Aβ that contains ^13C6-leucine at each time point. […]"}, "Aβ42 [2]": {"test_system": "Aβ42", "test": "CSF Aβ42 level, screening to day 21 (MSD immunoassay)", "assay_type": "in vivo, human", "settings": "ANOVA with age and sex as covariates; p = 0.33", "experimental": "as §1\n(§2) Changes in CSF biomarkers from the screening to confinement (sample at time of placement of catheter) were compared in the treatment and placebo groups by ANOVA, with models that included age, sex and baseline MMSE, and further analysis stratified by treatment dose. A similar approach was taken to analyze changes in MMSE, ADAS-cog and NPI. Data were analyzed using R (version 4.2.2)."}, "sAPPβ": {"test_system": "sAPPβ", "test": "CSF sAPPβ level, screening to day 21 (MSD immunoassay)", "assay_type": "in vivo, human", "settings": "ANOVA with age and sex as covariates; p = 0.16", "experimental": "as §1, §2"}, "[3]": {"test": "Cognitive and behavioral outcomes (ADAS-cog12, MMSE, NPI)", "assay_type": "in vivo, human", "text": "The screening visit included history, examination, review of medical records and medications, vital signs, physical and neurological examination, cognitive testing with the MMSE and Logical Memory test (Wechsler Memory Scale-revised), EKG, blood draw for routine laboratory tests, lumbar puncture and if needed, brain MRI. If eligible, participants underwent a baseline visit, with cognitive assessment using the MMSE and ADAS-cog12, behavioral assessments, Research Satisfaction Survey, safety assessments, and review of concurrent medications and adverse events, and they received a supply of the study drug (or placebo), which they started the day after the baseline visit. A telephone assessment was done at day 14 after baseline, to assess adverse events, concomitant medication changes and remind participants/study partners about the confinement visit. A pre-confinement visit took place 1–3 days before the confinement visit, following treatment for 20 days, and included physical and neurological examination, cognitive and behavioral assessments (see below), safety assessments (including clinical safety labs), and a review of compliance, concurrent medications and adverse events. The study drug or placebo was continued until the day before the confinement visit.\nSafety measures included adverse events, vital signs, EKG and laboratory tests. The Mini-Mental State Examination (MMSE), Alzheimer’s Disease Assessment Scale-cognitive (ADAS-cog12) and Neuropsychiatric Inventory (NPI) were used as cognitive and behavioral outcomes,.\nas §2"}, "[4]": {"design": "method as in PMID 22791904", "settings": "cited from earlier work"}, "APP mRNA": {"test_system": "APP mRNA", "design": "method as in PMID 20558735, PMID 22693681", "settings": "resulting in decreased production of APP and Aβ; cited from earlier work"}, "APP": {"test_system": "APP", "design": "method as in PMID 36641607", "settings": "mild AD (n = 14), 80 mg once per day, up to 27 days; not significant; cited from earlier work"}}}
{"smiles": "CN1CC[C@]2(C)c3cc(OC(=O)Nc4ccccc4)ccc3N(C)[C@H]12", "note": "[Posiphen]", "values": [{"measurement": "effect on FSR for CSF Aβ40 vs. placebo", "setting": "Aβ40; after 21 days, FSR from hours 6–16 and automated method, no dose-dependent effect", "value": "no significant effect"}, {"measurement": "peak in labeling (SILK curve)", "setting": "Aβ40; single 180 mg per day subject, previous study maximum 24.7 h", "value": "about 28 h"}, {"measurement": "effect on FSR estimates for Aβ42 vs. placebo", "setting": "Aβ42 [1]", "value": "no significant effect"}, {"measurement": "CSF Aβ42, Treatment difference (Posiphen – placebo)", "setting": "Aβ42 [2]", "value": "-0.104 (0.102) p = 0.33 pg/mL"}, {"measurement": "CSF sAPPβ, Treatment difference (Posiphen – placebo)", "setting": "sAPPβ", "value": "47.9 (31.6) p = 0.16 pg/mL"}, {"measurement": "NPI, mean change from baseline to pre-confinement", "setting": "[3]; Posiphen (n = 11), mITT, baseline 8.36 ± 9.52", "value": "-0.45 ± 7.01"}, {"measurement": "MMSE, Pre-confinement", "setting": "[3]; Posiphen (n = 11), mITT, baseline 24.36 ± 2.8", "value": "24.18 ± 2.52"}, {"measurement": "ADAS-Cog12, Pre-confinement", "setting": "[3]; Posiphen (n = 11), mITT, baseline 25.73 ± 8.76", "value": "25.18 ± 5.33"}, {"measurement": "ADAS-cog, MMSE or NPI total scores, change from baseline to pre-confinement visit", "setting": "[3]; Posiphen or placebo groups", "value": "no significant changes"}, {"measurement": "MMSE, Mean change", "setting": "[3]; baseline to pre-confinement, Posiphen (n = 11), placebo 1.14 ± 2.12", "value": "-0.18 ± 2.09"}, {"measurement": "ADAS-Cog12, Mean change", "setting": "[3]; baseline to pre-confinement, Posiphen (n = 11), placebo -1.57 ± 5.19", "value": "-0.55 ± 6.04"}, {"measurement": "ADAS-cog change, t", "setting": "[3]; contrast 60 mg – placebo, multiple linear regression (age, sex, APOE genotype, baseline score, arm), p 0.68", "value": 0.42}, {"measurement": "MMSE change, t", "setting": "[3]; contrast 60 mg – placebo, multiple linear regression, p 0.006", "value": -3.32}, {"measurement": "NPI change, t", "setting": "[3]; contrast 60 mg – placebo, multiple linear regression, p 0.51", "value": 0.68}, {"measurement": "NPI change, t", "setting": "[3]; contrast 120 mg - placebo, multiple linear regression, p 0.02", "value": 2.73}, {"measurement": "MMSE change, t", "setting": "[3]; contrast 120 mg - placebo, multiple linear regression, p 0.24", "value": 1.2}, {"measurement": "ADAS-cog change, t", "setting": "[3]; contrast 120 mg - placebo, multiple linear regression, p 0.30", "value": 1.1}, {"measurement": "ADAS-cog change, t", "setting": "[3]; contrast 180 mg - placebo, multiple linear regression, p 0.77", "value": "029"}, {"measurement": "NPI change, t", "setting": "[3]; contrast 180 mg - placebo, multiple linear regression, p 0.91", "value": 0.12}, {"measurement": "NPI, Treatment difference (Posiphen – placebo)", "setting": "[3]; mITT, p = 0.11", "value": "7.10 ± 4.07", "unit": "p = 0.11"}, {"measurement": "ADAS-Cog12, Treatment difference (Posiphen – placebo)", "setting": "[3]; mITT, p = 0.32", "value": "3.00 ± 2.94", "unit": "p = 0.32"}, {"measurement": "MMSE, Treatment difference (Posiphen – placebo)", "setting": "[3]; mITT, p= 0.23", "value": "-1.6 ± 1.28", "unit": "p= 0.23"}, {"measurement": "safety and tolerability, multiple dose studies", "setting": "[4]; 20, 40 or 60 mg given four times per day", "value": "safe and well-tolerated"}, {"measurement": "gastro-intestinal side effects", "setting": "[4]; Single Ascending Dose study, daily dose of 160 mg or higher", "value": "high rate of gastro-intestinal side effects"}, {"measurement": "plasma half-life", "setting": "[4]; oral, up to four times per day", "value": "short"}, {"measurement": "translation of APP mRNA", "setting": "APP mRNA", "value": "decreased"}, {"measurement": "CSF APP before and after treatment", "setting": "APP", "value": "small reduction"}]}
